Data as given in patent US8586579B2, “Anellated pyridine compounds” (Hoffmann-La Roche Inc., priority 2010, dated 2013).
pKi: −log10 of the molar value. Read-outs that look alike come from different tables or passages of the source.

What was measured:
[1] = molecular target: human D3 receptor (Homo sapiens (Human), UniProt P35462); experiment: Radioligand binding assay, [3H]-spiperone, human D3 receptor; details: membranes of HEK293 EBNA cells expressing human D3; 0.5 nM [3H]-spiperone
Summary of the method: (§1)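 Incubation was 1 h at RT, using 1.1 nM [3H]-ketanserin at 5-HT2A or 0.5 nM [3H]-spiperone at D3, on membranes of transiently transfected HEK293 EBNA cells. Nonspecific binding was set with 10 μM unlabelled spiperone.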

[2] = molecular target: human D2 receptor (Homo sapiens (Human), UniProt P14416); experiment: Radioligand binding assay, [3H]-spiperone, human D2 receptor; details: membranes of HEK293 EBNA cells expressing human D2; 0.7 nM [3H]-spiperone
Sequence of human D2 receptor (P14416 whole entry): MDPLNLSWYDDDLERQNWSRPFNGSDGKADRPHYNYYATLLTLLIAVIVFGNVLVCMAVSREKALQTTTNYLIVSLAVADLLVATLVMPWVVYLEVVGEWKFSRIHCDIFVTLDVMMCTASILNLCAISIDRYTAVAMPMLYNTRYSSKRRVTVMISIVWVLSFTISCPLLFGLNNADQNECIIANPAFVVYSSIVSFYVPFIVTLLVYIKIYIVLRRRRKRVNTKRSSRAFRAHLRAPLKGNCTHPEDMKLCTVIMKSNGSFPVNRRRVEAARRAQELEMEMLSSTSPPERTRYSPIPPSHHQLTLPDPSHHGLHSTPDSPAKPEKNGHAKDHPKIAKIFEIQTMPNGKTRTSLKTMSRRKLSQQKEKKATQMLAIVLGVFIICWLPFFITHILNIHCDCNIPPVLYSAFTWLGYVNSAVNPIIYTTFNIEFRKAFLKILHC
Summary of the method: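 Competition binding used ~0.7 nM [3H]-spiperone, 1 h at room temperature, pH 7.4 Tris/salt buffer, on transiently transfected HEK293 EBNA membranes bearing human D2.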

[3] = molecular target: human 5-HT2A receptor (Homo sapiens (Human), UniProt P28223); experiment: Radioligand binding assay, [3H]-ketanserin, human 5-HT2A receptor
Sequence of human 5-HT2A receptor (P28223 whole entry): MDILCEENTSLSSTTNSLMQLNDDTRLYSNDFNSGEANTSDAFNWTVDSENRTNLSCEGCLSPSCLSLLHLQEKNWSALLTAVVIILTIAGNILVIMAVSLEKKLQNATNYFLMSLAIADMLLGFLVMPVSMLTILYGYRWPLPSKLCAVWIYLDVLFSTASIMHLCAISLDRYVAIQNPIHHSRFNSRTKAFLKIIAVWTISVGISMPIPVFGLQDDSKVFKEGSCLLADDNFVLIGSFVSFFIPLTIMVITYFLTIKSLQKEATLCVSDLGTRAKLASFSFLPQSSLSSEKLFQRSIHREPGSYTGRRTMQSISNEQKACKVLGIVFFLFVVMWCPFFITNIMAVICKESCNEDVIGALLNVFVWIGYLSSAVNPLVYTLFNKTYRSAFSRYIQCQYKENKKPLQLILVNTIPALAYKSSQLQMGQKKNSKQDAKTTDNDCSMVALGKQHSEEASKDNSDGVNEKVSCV
Summary of the method: as §1

[4] = membranes of HEK293 EBNA cells expressing human 5-HT2A, 1.1 nM [3H]-ketanserin

Sequence of human D3 receptor (P35462 whole entry): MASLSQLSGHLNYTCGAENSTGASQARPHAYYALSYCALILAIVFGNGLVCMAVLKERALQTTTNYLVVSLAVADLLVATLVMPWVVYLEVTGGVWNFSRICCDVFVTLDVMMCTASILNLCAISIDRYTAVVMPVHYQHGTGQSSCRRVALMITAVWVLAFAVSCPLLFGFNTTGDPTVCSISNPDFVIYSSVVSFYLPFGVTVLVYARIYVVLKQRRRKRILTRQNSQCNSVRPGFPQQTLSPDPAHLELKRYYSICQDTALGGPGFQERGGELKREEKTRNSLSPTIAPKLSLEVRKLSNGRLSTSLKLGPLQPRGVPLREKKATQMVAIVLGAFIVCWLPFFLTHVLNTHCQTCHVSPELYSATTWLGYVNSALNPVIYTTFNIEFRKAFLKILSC

Compound	melting point [°C]	pKi [1]	pKi [2]	pKi [3, 4]	pKi [3]
CC(=O)N[C@H]1CC[C@H](CCN2CCN(c3nc(C)cc4occc34)CC2)CC1 [Example 96, trans-N-(4-{2-[4-(6-Methyl-furo[3,2-c]pyridin-4-yl)-piperazin-1-yl]-ethyl}-cyclohexyl)-acetamide]	207.5	8.33	6.60	7.12	
Cc1cc2occc2c(N2CCN(CC[C@H]3CC[C@H](NC(=O)C4CCOCC4)CC3)CC2)n1 [Example 97, trans-Tetrahydro-pyran-4-carboxylic acid (4-{2-[4-(6-methyl-furo[3,2-c]pyridin-4-yl)-piperazin-1-yl]-ethyl}-cyclohexyl)-amide]	219	7.85	6.56		7.59
Cc1cc2occc2c(N2CCN(CC[C@H]3CC[C@H](NC(=O)CC4CCOCC4)CC3)CC2)n1 [Example 98, trans-N-(4-{2-[4-(6-Methyl-furo[3,2-c]pyridin-4-yl)-piperazin-1-yl]-ethyl}-cyclohexyl)-2-(tetrahydro-pyran-4-yl)-acetamide]	212.5	8.02	6.19	7.12	
COCCC(=O)N[C@H]1CC[C@H](CCN2CCN(c3nc(C)cc4occc34)CC2)CC1 [Example 99, trans-3-Methoxy-N-(4-{2-[4-(6-methyl-furo[3,2-c]pyridin-4-yl)-piperazin-1-yl]-ethyl}-cyclohexyl)-propionamide]	158	8.32	6.37	7.06	
CC(=O)N[C@H]1CC[C@H](CCN2CCN(c3nc(C)cc4c3CCO4)CC2)CC1 [Example 100, trans-N-(4-{2-[4-(6-Methyl-2,3-dihydro-furo[3,2-c]pyridin-4-yl)-piperazin-1-yl]-ethyl}-cyclohexyl)-acetamide]	217.5	8.12	6.04	6.67	
Cc1cc2c(c(N3CCN(CC[C@H]4CC[C@H](NC(=O)C5CCOCC5)CC4)CC3)n1)CCO2 [Example 101, Tetrahydro-pyran-4-carboxylic acid trans-(4-{2-[4-(6-methyl-2,3-dihydro-furo[3,2-c]pyridin-4-yl)-piperazin-1-yl]-ethyl}-cyclohexyl)-amide]	234.5	7.46	5.71	7.23	
Cc1cc2c(c(N3CCN(CC[C@H]4CC[C@H](NC(=O)CC5CCOCC5)CC4)CC3)n1)CCO2 [Example 102, trans-N-(4-{2-[4-(6-Methyl-2,3-dihydro-furo[3,2-c]pyridin-4-yl)-piperazin-1-yl]-ethyl}-cyclohexyl)-2-(tetrahydro-pyran-4-yl)-acetamide]	218.5	7.73	5.71	6.71	
COCCC(=O)N[C@H]1CC[C@H](CCN2CCN(c3nc(C)cc4c3CCO4)CC2)CC1 [Example 103, trans-3-Methoxy-N-(4-{2-[4-(6-methyl-2,3-dihydro-furo[3,2-c]pyridin-4-yl)-piperazin-1-yl]-ethyl}-cyclohexyl)-propionamide]	178.5	7.93	5.83	6.59	
CC(=O)N[C@H]1CC[C@H](CCN2CCN(c3ncc(C)c4occc34)CC2)CC1 [Example 104, trans-N-(4-{2-[4-(7-Methyl-furo[3,2-c]pyridin-4-yl)-piperazin-1-yl]-ethyl}-cyclohexyl)-acetamide]	208	7.67	5.84	7.86	
Cc1cnc(N2CCN(CC[C@H]3CC[C@H](NC(=O)C4CCOCC4)CC3)CC2)c2ccoc12 [Example 105, trans-Tetrahydro-pyran-4-carboxylic acid (4-{2-[4-(7-methyl-furo[3,2-c]pyridin-4-yl)-piperazin-1-yl]-ethyl}-cyclohexyl)-amide]	228	7.14	5.95		8.25
Cc1cnc(N2CCN(CC[C@H]3CC[C@H](NC(=O)CC4CCOCC4)CC3)CC2)c2ccoc12 [Example 106, trans-N-(4-{2-[4-(7-Methyl-furo[3,2-c]pyridin-4-yl)-piperazin-1-yl]-ethyl}-cyclohexyl)-2-(tetrahydro-pyran-4-yl)-acetamide]	205.5	7.42	5.57	7.93	
COCCC(=O)N[C@H]1CC[C@H](CCN2CCN(c3ncc(C)c4occc34)CC2)CC1 [Example 107, trans-3-Methoxy-N-(4-{2-[4-(7-methyl-furo[3,2-c]pyridin-4-yl)-piperazin-1-yl]-ethyl}-cyclohexyl)-propionamide]	177	7.52	5.61	7.92	
CC(=O)N[C@H]1CC[C@H](CCN2CCN(c3ncc(C)c4c3CCO4)CC2)CC1 [Example 108, trans-N-(4-{2-[4-(7-Methyl-2,3-dihydro-furo[3,2-c]pyridin-4-yl)-piperazin-1-yl]-ethyl}-cyclohexyl)-acetamide]	196.5	7.32	5.64	7.17	
Cc1cnc(N2CCN(CC[C@H]3CC[C@H](NC(=O)C4CCOCC4)CC3)CC2)c2c1OCC2 [Example 109, Tetrahydro-pyran-4-carboxylic acid trans-(4-{2-[4-(7-methyl-2,3-dihydro-furo[3,2-c]pyridin-4-yl)-piperazin-1-yl]-ethyl}-cyclohexyl)-amide]	223.5	7.01	5.35	7.71	
Cc1cnc(N2CCN(CC[C@H]3CC[C@H](NC(=O)CC4CCOCC4)CC3)CC2)c2c1OCC2 [Example 110, trans-N-(4-{2-[4-(7-Methyl-2,3-dihydro-furo[3,2-c]pyridin-4-yl)-piperazin-1-yl]-ethyl}-cyclohexyl)-2-(tetrahydro-pyran-4-yl)-acetamide]	199	7.16	5.53	7.36	
COCCC(=O)N[C@H]1CC[C@H](CCN2CCN(c3ncc(C)c4c3CCO4)CC2)CC1 [Example 111, trans-3-Methoxy-N-(4-{2-[4-(7-methyl-2,3-dihydro-furo[3,2-c]pyridin-4-yl)-piperazin-1-yl]-ethyl}-cyclohexyl)-propionamide]	163.5	7.33	5.45	7.43	
COC(CC(=O)N[C@H]1CC[C@H](CCN2CCN(c3nccc4c3CCO4)CC2)CC1)OC [Example 113, trans-N-(4-{2-[4-(2,3-Dihydro-furo[3,2-c]pyridin-4-yl)-piperazin-1-yl]-ethyl}-cyclohexyl)-3,3-dimethoxy-propionamide]	220	7.71	5.86	7.80	
COC(CCC(=O)N[C@H]1CC[C@H](CCN2CCN(c3nccc4c3CCO4)CC2)CC1)OC [Example 114, trans-N-(4-{2-[4-(2,3-Dihydro-furo[3,2-c]pyridin-4-yl)-piperazin-1-yl]-ethyl}-cyclohexyl)-4,4-dimethoxy-butyramide]	205.5	7.17	5.63	7.74	
CS(=O)(=O)c1ccc(C(=O)N[C@H]2CC[C@H](CCN3CCN(c4nccc5c4CCO5)CC3)CC2)s1 [Example 115, 5-Methanesulfonyl-thiophene-2-carboxylic acid trans-(4-{2-[4-(2,3-dihydro-furo[3,2-c]pyridin-4-yl)-piperazin-1-yl]-ethyl}-cyclohexyl)-amide]	229	7.47	6.29	8.02	
N#Cc1ccc(C(=O)N[C@H]2CC[C@H](CCN3CCN(c4nccc5c4CCO5)CC3)CC2)cc1 [Example 117, trans-4-Cyano-N-(4-{2-[4-(2,3-dihydro-furo[3,2-c]pyridin-4-yl)-piperazin-1-yl]-ethyl}-cyclohexyl)-benzamide]	243.5	7.55	6.42	7.89	
CN1CCN(c2ccc(C(=O)N[C@H]3CC[C@H](CCN4CCN(c5nccc6c5CCO6)CC4)CC3)cc2)CC1 [Example 118, trans-N-(4-{2-[4-(2,3-Dihydro-furo[3,2-c]pyridin-4-yl)-piperazin-1-yl]-ethyl}-cyclohexyl)-4-(4-methyl-piperazin-1-yl)-benzamide]	236	7.83	6.75	8.35	
O=C(N[C@H]1CC[C@H](CCN2CCN(c3nccc4c3CCO4)CC2)CC1)c1ccc(N2CCOCC2)nc1 [Example 119, trans-N-(4-{2-[4-(2,3-Dihydro-furo[3,2-c]pyridin-4-yl)-piperazin-1-yl]-ethyl}-cyclohexyl)-6-morpholin-4-yl-nicotinamide]	222	7.35	6.00		7.81
O=C(N[C@H]1CC[C@H](CCN2CCN(c3nccc4c3CCO4)CC2)CC1)c1ccc(-c2cccnc2)cc1 [Example 120, trans-N-(4-{2-[4-(2,3-Dihydro-furo[3,2-c]pyridin-4-yl)-piperazin-1-yl]-ethyl}-cyclohexyl)-4-pyridin-3-yl-benzamide]	218	7.79	6.65	7.91	
